In patent US20200216818A1 (priority 2013, published 2020):

How the values were obtained:
Assay in all cases: MTS viability assay, ZD2767P prodrug, untransduced vs VV-CPG2-transduced cells
[1] = tested on: WM226.4 cells; type: cell-based; conditions: WM226.4 cells transduced with VV-CPG2 at MOI 0.1 vs untransduced
[2] = tested on: SW620 cells; type: cell-based; conditions: SW620 cells transduced with VV-CPG2 at MOI 0.1 vs untransduced
[3] = tested on: FaDu cells; type: cell-based, human; conditions: FaDu cells transduced with VV-CPG2 at MOI 0.1 vs untransduced

O=C(O)CC[C@H](NC(=O)Oc1ccc(N(CCI)CCI)cc1)C(=O)O [ZD2767P, N-(4-[bis(2-iodoethyl)amino]phenoxycarbonyl)-L-glutamic acid]
reduction of the EC50 of ZD2767P [1]: 114 fold
reduction of the EC50 of ZD2767P [2]: 119 fold
reduction of the EC50 of ZD2767P [3]: 103 fold
